Experimental data as given in patent US10906873B2, “Substituted cyclic amides as herbicides” (FMC Corporation, priority 2015, dated 2021).

Columns and labels:
Type in all cases: in vivo
[1] = test system: crabgrass (large crabgrass, Digitaria sanguinalis); assay: Test A preemergence, crabgrass; conditions: 1000 g ai/ha, 0 to 100 scale
Text: (§1) Seeds of plant species selected from barnyardgrass (Echinochloa crus-galli), crabgrass (large crabgrass, Digitaria sanguinalis), kochia (Kochia scoparia), ragweed (common ragweed, Ambrosia elatior), morningglory (Ipomoea spp.), velvetleaf (Abutilon theophrasti), ryegrass, It. (Italian ryegrass, Lolium multiflorum), foxtail, giant (giant foxtail, Setaria faberii), wheat (Triticum aestivum), corn (Zea mays), and pigweed (Amaranthus retroflexus), were planted into a blend of loam soil and sand and treated preemergence with a directed soil spray using test chemicals formulated in a non-phytotoxic solvent mixture which included a surfactant. At the same time, plants selected from these crop and weed species and also blackgrass (Alopecurus myosuroides), and galium (catchweed bedstraw, Galium aparine), were planted in pots containing the same blend of loam soil and sand and treated with postemergence applications of test chemicals formulated in the same manner. Plants ranged in height from 2 to 10 cm and were in the one- to two-leaf stage for the postemergence treatment. Treated plants and untreated controls were maintained in a greenhouse for approximately 10 d, after which time all treated plants were compared to untreated controls and visually evaluated for injury. Plant response ratings, summarized in Table A, are based on a 0 to 100 scale where 0 is no effect and 100 is complete control. A dash (-) response means no test result.

[2] = test system: pigweed (Amaranthus retroflexus); assay: Test A preemergence, pigweed; conditions: 1000 g ai/ha, 0 to 100 scale
How it was run: (§2)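 Scores run from 0, no effect, to 100, complete control, assigned visually after roughly 10 d in the greenhouse. Preemergence treatment is a directed spray onto sown loam–sand soil; postemergence treatment targets plants 2 to 10 cm tall.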

[3] = test system: wheat (Triticum aestivum); assay: Test A postemergence, wheat; conditions: 1000 g ai/ha, 0 to 100 scale
How it was run: as §2

[4] = test system: velvetleaf (Abutilon theophrasti); assay: Test A postemergence, velvetleaf; conditions: 1000 g ai/ha, 0 to 100 scale
Text: as §1

[5] = test system: morningglory (Ipomoea spp.); assay: Test A preemergence, morningglory; conditions: 1000 g ai/ha, 0 to 100 scale
Text: as §1

[6] = test system: wheat (Triticum aestivum); assay: Test A preemergence, wheat; conditions: 1000 g ai/ha, 0 to 100 scale
Text: as §1

[7] = test system: velvetleaf (Abutilon theophrasti); assay: Test A preemergence, velvetleaf; conditions: 1000 g ai/ha, 0 to 100 scale
Text: as §1

[8] = test system: crabgrass (large crabgrass, Digitaria sanguinalis); assay: Test A postemergence, crabgrass; conditions: 1000 g ai/ha, 0 to 100 scale
Text: as §1

corn (Zea mays) [9] = assay: Test A postemergence, corn; conditions: 1000 g ai/ha, 0 to 100 scale
How it was run: as §2

corn (Zea mays) [10] = assay: Test A preemergence, corn; conditions: 1000 g ai/ha, 0 to 100 scale
Text: as §1

[11] = test system: sedge, umbrella (small-flower umbrella sedge, Cyperus difformis); assay: Test B flooded paddy test, sedge, umbrella; conditions: Flood, 1000 g ai/ha; scale of 0 to 100 where 0 is no effect and 100 is complete control; 13 to 15 d
How it was run: (§3)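 Plants at the 2-leaf stage were flooded to 3 cm above soil, and test compounds were applied directly into the paddy water, which was held at that depth throughout. After 13 to 15 d in a greenhouse, injury was rated visually against untreated controls on a 0–100 scale (0 no effect, 100 complete control).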

[12] = test system: barnyardgrass (Echinochloa crus-galli); assay: Test A postemergence, barnyardgrass; conditions: 1000 g ai/ha, 0 to 100 scale (0 no effect, 100 complete control)
How it was run: as §2

[13] = test system: barnyardgrass (Echinochloa crus-galli); assay: Test A preemergence, barnyardgrass; conditions: 1000 g ai/ha, 0 to 100 scale
How it was run: as §2

[14] = test system: barnyardgrass (Echinochloa crus-galli); assay: Test B flooded paddy test, barnyardgrass; conditions: Flood, 1000 g ai/ha; scale of 0 to 100 where 0 is no effect and 100 is complete control; 13 to 15 d
How it was run: as §3

[15] = test system: pigweed (Amaranthus retroflexus); assay: Test A postemergence, pigweed; conditions: 1000 g ai/ha, 0 to 100 scale
How it was run: as §2

[16] = test system: foxtail, giant (giant foxtail, Setaria faberii); assay: Test A preemergence, foxtail, giant; conditions: 1000 g ai/ha, 0 to 100 scale
How it was run: as §2

[17] = test system: morningglory (Ipomoea spp.); assay: Test A postemergence, morningglory; conditions: 1000 g ai/ha, 0 to 100 scale
Text: as §1

rice (Oryza sativa) = assay: Test B flooded paddy test, rice; conditions: Flood, 1000 g ai/ha; scale of 0 to 100 where 0 is no effect and 100 is complete control; 13 to 15 d
How it was run: as §3

[18] = test system: ducksalad (Heteranthera limosa); assay: Test B flooded paddy test, ducksalad; conditions: Flood, 1000 g ai/ha; scale of 0 to 100 where 0 is no effect and 100 is complete control; 13 to 15 d
How it was run: as §3

[19] = test system: foxtail, giant (giant foxtail, Setaria faberii); assay: Test A postemergence, foxtail, giant; conditions: 1000 g ai/ha, 0 to 100 scale
How it was run: as §2

| Structure (SMILES) | Plant response rating, Crabgrass [1] | Plant response rating, Pigweed [2] | Plant response rating, Wheat [3] | Plant response rating, Velvetleaf [4] | Plant response rating, Morningglory [5] | Plant response rating, Wheat [6] | Plant response rating, Velvetleaf [7] | Plant response rating, Crabgrass [8] | Plant response rating, Corn (corn (Zea mays) [9]) | Plant response rating, Corn (corn (Zea mays) [10]) | Plant response rating, Sedge, Umbrella [11] | Plant response rating, Barnyardgrass [12] | Plant response rating, Barnyardgrass [13] | Plant response rating, Barnyardgrass [14] | Plant response rating, Pigweed [15] | Plant response rating, Foxtail, Giant [16] | Plant response rating, Morningglory [17] | Plant response rating, Rice (rice (Oryza sativa)) | Plant response rating, Ducksalad [18] | Plant response rating, Foxtail, Giant [19] |
| --- | --- | --- | --- | --- | --- | --- | --- | --- | --- | --- | --- | --- | --- | --- | --- | --- | --- | --- | --- | --- |
| O=C1NCC(Cc2cccc(Cl)c2)C1C(=O)Nc1ccccc1F (stereo not shown) [Compound 2] | 90 | 0 | 0 | 0 | 0 | 0 | 0 | 80 | 0 | 0 | 0 | 30 | 30 | 0 | 0 | 80 | 0 | 0 | 0 | 60 |
| O=C1NCC(Cc2ccccc2)C1C(=O)Nc1ccccc1F (stereo not shown) [Compound 3] | 0 | 0 | 0 | 0 | 0 | 0 | 0 | 0 | 0 | 0 |  | 0 | 0 |  | 0 | 0 | 0 |  |  | 0 |
| O=C1NCC(Cc2ccccc2)C1C(=O)Nc1cccc(F)c1F (stereo not shown) [Compound 4] | 60 | 0 | 0 | 0 | 0 | 0 | 0 | 20 | 0 | 0 |  | 0 | 0 |  | 0 | 0 | 0 |  |  | 0 |
